pIC50: −log10 of the molar value.
Assays:
PRMT5 [1] = target: T1, PRMT5 (Homo sapiens, UniProt O14744); assay: PRMT5 IC50 assay in the presence of SAM as cofactor; assay type: biochemical
T1 construct: purchased Viva (custom protein)
How it was run: (§1)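 MTA-dependent versus SAM-dependent inhibition of human PRMT5 was assessed by IC50; conversion factors of 13.5 and 1.5 gave the corresponding Ki.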

PRMT5 [2] = target: T1, PRMT5; assay: PRMT5 IC50 assay in the presence of MTA as cofactor; assay type: biochemical; conditions: for pIC50: PRMT5, MTA as cofactor
How it was run: as §1

PRMT5 [3] = target: T1, PRMT5; assay: PRMT5 IC50 assay with no cofactor; assay type: biochemical
How it was run: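 Human PRMT5 inhibition, IC50 in μM; cofactor varied (SAM / MTA / none).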

HAP1 MTAP-deleted = assay: SDMA in-cell western assay, HAP1 MTAP-deleted cell line; assay type: cell-based; conditions: for pIC50: Homo sapiens, HAP1 MTAP-deleted cell line; for MTAP Intact/Deleted Ratio: IC50 ratio HAP1 MTAP-intact / HAP1 MTAP-deleted
How it was run: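 In-cell western for SDMA marks; MTAP-deleted (null) HAP1 background; values given as IC50.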

HAP1 MTAP-intact = assay: SDMA in-cell western assay, HAP1 MTAP-intact cell line; assay type: cell-based; conditions: Homo sapiens
How it was run: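 Using an MTAP-isogenic HAP1 cell pair, inhibition of SDMA formation is read by in-cell western and expressed as IC50. MTAP-selectivity is assigned where the ratio between lines reaches 3 fold or greater.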

[4] = ratio between the Ki in the presence of SAM and the Ki in the presence of MTA
[5] = ratio between Ki in the presence of SAM and Ki in the presence of MTA

T1 sequence (O14744 whole entry): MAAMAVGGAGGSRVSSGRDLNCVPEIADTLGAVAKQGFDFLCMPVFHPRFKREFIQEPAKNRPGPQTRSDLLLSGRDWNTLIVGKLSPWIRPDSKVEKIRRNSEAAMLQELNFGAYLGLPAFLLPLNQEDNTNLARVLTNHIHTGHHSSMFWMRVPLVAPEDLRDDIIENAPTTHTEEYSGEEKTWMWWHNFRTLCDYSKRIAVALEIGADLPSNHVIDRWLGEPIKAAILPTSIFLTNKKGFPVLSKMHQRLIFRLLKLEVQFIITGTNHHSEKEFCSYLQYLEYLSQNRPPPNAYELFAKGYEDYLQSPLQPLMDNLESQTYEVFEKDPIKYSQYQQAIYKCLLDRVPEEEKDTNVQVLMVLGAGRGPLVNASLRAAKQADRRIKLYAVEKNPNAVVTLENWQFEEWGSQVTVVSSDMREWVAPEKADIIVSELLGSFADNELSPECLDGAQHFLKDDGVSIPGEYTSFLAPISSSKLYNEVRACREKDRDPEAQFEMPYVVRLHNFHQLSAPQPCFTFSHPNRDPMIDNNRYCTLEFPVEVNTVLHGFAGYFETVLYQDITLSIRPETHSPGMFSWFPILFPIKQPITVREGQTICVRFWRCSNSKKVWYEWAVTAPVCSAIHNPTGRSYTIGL
T1 sequence (Q9BQA1 whole entry partner): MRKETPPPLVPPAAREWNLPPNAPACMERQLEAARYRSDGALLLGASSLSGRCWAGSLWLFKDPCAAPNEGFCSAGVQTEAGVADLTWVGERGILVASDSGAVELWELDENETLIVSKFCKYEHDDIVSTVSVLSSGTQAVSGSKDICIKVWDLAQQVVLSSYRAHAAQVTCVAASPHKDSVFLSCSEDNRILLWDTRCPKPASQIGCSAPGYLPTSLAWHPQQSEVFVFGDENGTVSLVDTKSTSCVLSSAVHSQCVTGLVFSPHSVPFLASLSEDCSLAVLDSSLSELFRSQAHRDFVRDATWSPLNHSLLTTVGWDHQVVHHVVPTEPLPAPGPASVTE

pIC50 (PRMT5 [1])	pIC50 (PRMT5 [2])	pIC50 (PRMT5 [3])	pIC50 (HAP1 MTAP-deleted)	pIC50 (HAP1 MTAP-intact)	pIC50 (PRMT5 [3]; read-out: No Co-factor IC50)	Structure (SMILES)	SAM/MTA Ratio (PRMT5 [2]; [4])	MTAP Intact/Deleted Ratio (HAP1 MTAP-deleted)	SAM/MTA Ratio (PRMT5 [2]; [5])
6.30 to 7.30	6.30 to 7.30	5.30 to 6.30	> 6.00	5.00 to 6.00		COc1cc(C(=O)NC[C@H](O)CN2CCc3cc(OCc4ocnc4C)ccc3C2)cc(NC2CCN(C(C)=O)CC2)n1 [Compound 599, (S)-2-((1-acetylpiperidin-4-yl)amino)-N-(2-hydroxy-3-(6-((4-methyloxazol-5-yl)methoxy)-3,4-dihydroisoquinolin-2(1H)-yl)propyl)-6-methoxyisonicotinamide]	A (a Ki ratio greater than or equal to 10 fold between the Ki in the presence of SAM and the Ki in the presence of MTA)	A* (an IC50 ratio greater than or equal to 10 fold between the IC50 in the HAP1 MTAP-intact cell line and the HAP1 MTAP-deleted cell line)	
6.30 to 7.30	6.30 to 7.30	5.30 to 6.30	5.00 to 6.00	≤ 5.00		O=C(NC[C@H](O)CN1CCc2cc(OCc3cnco3)ccc2C1)c1ccc2c(c1)CCN(C(=O)c1ccc(Br)cc1)C2 [Compound 561]	A (a Ki ratio greater than or equal to 10 fold between the Ki in the presence of SAM and the Ki in the presence of MTA)	B* (an IC50 ratio greater than or equal to 3 fold but lower than 10 fold between the IC50 in the HAP1 MTAP-intact cell line and the HAP1 MTAP-deleted cell line)	
6.30 to 7.30	6.30 to 7.30		> 6.00	5.00 to 6.00	5.30 to 6.30	CC(=O)N1CCC(Nc2cc(C(=O)NC[C@H](O)CN3CCc4cc(OCc5ocnc5C)ccc4C3)cc(N(C)C)n2)CC1 [Compound 629, (S)-2-((1-acetylpiperidin-4-yl)amino)-6-(dimethylamino)-N-(2-hydroxy-3-(6-((4-methyloxazol-5-yl)methoxy)-3,4-dihydroisoquinolin-2(1H)-yl)propyl)isonicotinamide]		A* (an IC50 ratio greater than or equal to 10 fold between the IC50 in the HAP1 MTAP-intact cell line and the HAP1 MTAP-deleted cell line)	A (a Ki ratio greater than or equal to 10 fold between the Ki in the presence of SAM and the Ki in the presence of MTA)
6.30 to 7.30	6.30 to 7.30		5.00 to 6.00	5.00 to 6.00	≤ 5.30	CC(=O)N1CCC(Nc2cc(C(=O)NC[C@H](O)CN3CCc4cc(OCc5ocnc5C)ccc4C3)ccn2)C(C)C1 (stereo partly drawn) [Compound 637, 2-((1-acetyl-3-methylpiperidin-4-yl)amino)-N—((S)-2-hydroxy-3-(6-((4-methyloxazol-5-yl)methoxy)-3,4-dihydroisoquinolin-2(1H)-yl)propyl)isonicotinamide]		B* (an IC50 ratio greater than or equal to 3 fold but lower than 10 fold between the IC50 in the HAP1 MTAP-intact cell line and the HAP1 MTAP-deleted cell line)	A (a Ki ratio greater than or equal to 10 fold between the Ki in the presence of SAM and the Ki in the presence of MTA)
6.30 to 7.30	6.30 to 7.30	5.30 to 6.30	> 6.00	5.00 to 6.00		COc1cc(C(=O)NC[C@H](O)CN2CCc3c(ccc(OCc4ocnc4C)c3C)C2)cc(NC2CCN(C(C)=O)CC2)n1 [Compound 604, (S)-2-((1-acetylpiperidin-4-yl)amino)-N-(2-hydroxy-3-[5-methyl-6-((4-methyloxazol-5-yl)methoxy)-3,4-dihydroisoquinolin-2(1H)-yl)propyl)-6-methoxyisonicotinamide]	A (a Ki ratio greater than or equal to 10 fold between the Ki in the presence of SAM and the Ki in the presence of MTA)	A* (an IC50 ratio greater than or equal to 10 fold between the IC50 in the HAP1 MTAP-intact cell line and the HAP1 MTAP-deleted cell line)	
6.30 to 7.30	6.30 to 7.30	5.30 to 6.30	5.00 to 6.00	≤ 5.00		CC(=O)N1CCC(Nc2ccnc(C(=O)NC[C@H](O)CN3CCc4c(ccc(OCc5cnco5)c4C)C3)c2)CC1 [Compound 559]	A (a Ki ratio greater than or equal to 10 fold between the Ki in the presence of SAM and the Ki in the presence of MTA)	C* (an IC50 ratio of less than 3 fold between the IC50 in the HAP1 MTAP-intact cell line and the HAP1 MTAP-deleted cell line)	
6.30 to 7.30	6.30 to 7.30		> 6.00	> 6.00	5.30 to 6.30	O=C(NC[C@H](O)CN1CCc2cc(OCc3cnco3)ccc2C1)c1cncc(NC2CCC2)c1 [Compound 270, (S)-5-(cyclobutylamino)-N-(2-hydroxy-3-(6-(oxazol-5-ylmethoxy)-3N-dihydroisoquinolin-2(1H)-yl)propyl)nicotinamide]		C* (an IC50 ratio of less than 3 fold between the IC50 in the HAP1 MTAP-intact cell line and the HAP1 MTAP-deleted cell line)	A (a Ki ratio greater than or equal to 10 fold between the Ki in the presence of SAM and the Ki in the presence of MTA)
6.30 to 7.30	6.30 to 7.30	≤ 5.30	5.00 to 6.00	≤ 5.00		CCN(C)c1nc(NC2COC2)cc(C(=O)NC[C@H](O)CN2CCc3c(ccc(OCc4ocnc4C)c3C)C2)n1 [Compound 477]	A (a Ki ratio greater than or equal to 10 fold between the Ki in the presence of SAM and the Ki in the presence of MTA)	B* (an IC50 ratio greater than or equal to 3 fold but lower than 10 fold between the IC50 in the HAP1 MTAP-intact cell line and the HAP1 MTAP-deleted cell line)	
6.30 to 7.30	6.30 to 7.30		> 6.00	5.00 to 6.00	5.30 to 6.30	Cc1ncoc1COc1ccc2c(c1)CCN(C[C@@H](O)CNC(=O)c1cc(NC3COC3)nc(N3CCN(C(=O)C4CC4)CC3)n1)C2 [Compound 400, 2-(4-cyclopropanecarbonylpiperazin-1-yl)-N-[(2S)-2-hydroxy-3-{6-[(4-methyl-1,3-oxazol-5-yl)methoxy]-1,2,3,4-tetrahydroisoquinolin-2-yl}propyl]-6-[(oxetan-3-yl)amino]pyrimidine-4-carboxamide]		B* (an IC50 ratio greater than or equal to 3 fold but lower than 10 fold between the IC50 in the HAP1 MTAP-intact cell line and the HAP1 MTAP-deleted cell line)	A (a Ki ratio greater than or equal to 10 fold between the Ki in the presence of SAM and the Ki in the presence of MTA)
5.30 to 6.30	6.30 to 7.30	5.30 to 6.30	> 6.00	5.00 to 6.00		O=C(NC[C@H](O)CN1CCc2cc(OCc3cnco3)ccc2C1)c1cc(NC2CCC2)ccn1 [Compound 509, (S)-4-(cyclobutylamino)-N-(2-hydroxy-3-(6-(oxazol-5-ylmethoxy)-3,4-dihydroisoquinolin-2(1H)-yl)propyl)picolinamide]	A (a Ki ratio greater than or equal to 10 fold between the Ki in the presence of SAM and the Ki in the presence of MTA)	C* (an IC50 ratio of less than 3 fold between the IC50 in the HAP1 MTAP-intact cell line and the HAP1 MTAP-deleted cell line)	
5.30 to 6.30	6.30 to 7.30	≤ 5.30	5.00 to 6.00	≤ 5.00		Cc1ncoc1COc1ccc2c(c1C)CCN(C[C@@H](O)CNC(=O)c1cccc(NC3CCC3)c1)C2 [Compound 488, 3-(cyclobutylamino)-N-[(2S)-2-hydroxy-3-{5-methyl-6-[(4-methyl-1,3-oxazol-5-yl)methoxy]-1,2,3,4-tetrahydroisoquinolin-2-yl}propyl]benzamide]	A (a Ki ratio greater than or equal to 10 fold between the Ki in the presence of SAM and the Ki in the presence of MTA)	C* (an IC50 ratio of less than 3 fold between the IC50 in the HAP1 MTAP-intact cell line and the HAP1 MTAP-deleted cell line)	
6.30 to 7.30	6.30 to 7.30	≤ 5.30	≤ 5.00	≤ 5.00		CC(=O)N1CC(Nc2cc(C(=O)NC[C@H](O)CN3CCc4c(ccc(OCc5cnco5)c4C)C3)ccn2)C1 [Compound 512, (S)-2-((1-acetylazetidin-3-yl)amino)-N-(2-hydroxy-3-(5-methyl-6-(oxazol-5-ylmethoxy)-3,4-dihydroisoquinolin-2(1H)-yl)propyl)isonicotinamide]	A (a Ki ratio greater than or equal to 10 fold between the Ki in the presence of SAM and the Ki in the presence of MTA)	C* (an IC50 ratio of less than 3 fold between the IC50 in the HAP1 MTAP-intact cell line and the HAP1 MTAP-deleted cell line)	
6.30 to 7.30	6.30 to 7.30	≤ 5.30	5.00 to 6.00	≤ 5.00		CCCN(C)c1nc(NC2COC2)cc(C(=O)NC[C@H](O)CN2CCc3c(ccc(OCc4ocnc4C)c3C)C2)n1 [Compound 465, N-[(2K)-2-hydroxy-3-{5-methyl-6-[(4-methyl-1,3-oxazol-5-yl)methoxy]-1,2,3,4-tetrahydroisoquinolin-2-yl}propyl]-2-[methyl(propyl)amino]-6-[(oxetan-3-yl)amino]pyrimidine-4-carboxamide]	A (a Ki ratio greater than or equal to 10 fold between the Ki in the presence of SAM and the Ki in the presence of MTA)	B* (an IC50 ratio greater than or equal to 3 fold but lower than 10 fold between the IC50 in the HAP1 MTAP-intact cell line and the HAP1 MTAP-deleted cell line)	

— US11986471B2, “Compounds and methods of use” (Tango Therapeutics, Inc., priority 2018, dated 2024)
